Results published in ChEMBL document CHEMBL5500400, “Design and Discovery of a Potent and Selective Inhibitor of Integrin αvβ1” (J Med Chem, 2024).
pIC50: −log10 of the molar value.

Tests used:
[1] = molecular target: T1, Integrin alpha-V/beta-1 (Homo sapiens, UniProt P05556+P06756); assay: Inhibition of recombinant human Integrin alphaVbeta1 using TMB as substrate incubated for 2 hrs in presence of fibronectin by ELISA; type: protein-complex assay
[2] = molecular target: T2, Integrin alpha-V/beta-3 (Homo sapiens, UniProt P05106+P06756); assay: Inhibition of recombinant human Integrin alphaVbeta3 using TMB as substrate incubated for 2 hrs in presence of vitronectin by ELISA; type: protein-complex assay
[3] = molecular target: T3, Integrin alpha-4/beta-1 (Homo sapiens, UniProt P05556+P13612); assay: Inhibition of recombinant human Integrin alpha4beta1 using TMB as substrate incubated for 2 hrs in presence of VCAM-1 by ELISA; type: protein-complex assay
[4] = molecular target: T4, Integrin alpha-5/beta-1 (Homo sapiens, UniProt P05556+P08648); assay: Inhibition of recombinant human Integrin alpha5beta1 using TMB as substrate incubated for 2 hrs in presence of fibronectin by ELISA; type: protein-complex assay
[5] = molecular target: Integrin alpha-V/beta-5 (Homo sapiens, UniProt P06756+P18084); assay: Inhibition of recombinant human Integrin alphaVbeta5 using TMB as substrate incubated for 2 hrs in presence of fibronectin by ELISA; type: protein-complex assay
[6] = molecular target: T5, Integrin alpha-V/beta-8 (Homo sapiens, UniProt P06756+P26012); assay: Inhibition of recombinant human Integrin alphaVbeta8 using TMB as substrate incubated for 2 hrs in presence of LAP by ELISA; type: protein-complex assay
[7] = molecular target: T6, Integrin alpha-V/beta-6 (Homo sapiens, UniProt P06756+P18564); assay: Inhibition of recombinant human Integrin alphaVbeta6 using TMB as substrate incubated for 2 hrs in presence of LAP by ELISA; type: protein-complex assay
[8] = Apparent permeability across apical to basolateral side in dog MDCK-MDR1 cells incubated for 60 mins by HPLC analysis; type: ADME, cell-based, Canis lupus familiaris
[9] = Apparent permeability across basolateral to apical side in dog MDCK-MDR1 cells incubated for 60 mins by HPLC analysis; type: ADME, cell-based, Canis lupus familiaris
[10] = molecular target: T4, Integrin alpha-5/beta-1; assay: Inhibition of Integrin alpha5beta1 mediated cellular adhesion in human HCT-116 cells incubated for 24 hrs in presence of Ca2+ and Mg2+ by real-time cell analysis; type: cell-based
[11] = molecular target: T5, Integrin alpha-V/beta-8; assay: Inhibition of Integrin alphaVbeta8 in human SNB-19 cells cocultured with TGF-beta expressing Mv1Lu cells assessed as inhibition of integrin alphaVbeta8 mediated TGF-beta transactivation by luciferase assay; type: cell-based
[12] = molecular target: T6, Integrin alpha-V/beta-6; assay: Inhibition of human Integrin alphaVbeta6 expressed in SW480 cells cocultured with TGF-beta expressing Mv1Lu cells assessed as inhibition of integrin alphaVbeta6 mediated TGF-beta transactivation by luciferase assay; type: cell-based
[13] = molecular target: T2, Integrin alpha-V/beta-3; assay: Inhibition of recombinant human Integrin alphaVbeta3 mediated cellular adhesion expressed in HEK cells incubated for 24 hrs in presence of Ca2+ and Mg2+ by real-time cell analysis; type: cell-based
[14] = molecular target: T1, Integrin alpha-V/beta-1; assay: Inhibition of recombinant human Integrin alphaVbeta1 mediated cellular adhesion expressed in CHO-B2 cell incubated for 24 hrs in presence of Ca2+ and Mg2+ by real-time cell analysis; type: cell-based
[15] = molecular target: Integrin alpha-8/beta-1 (Homo sapiens, UniProt P05556+P53708); assay: Inhibition of recombinant human Integrin alpha8beta1 mediated cellular adhesion expressed in HEK cells incubated for 24 hrs in presence of Ca2+ and Mg2+ by real-time cell analysis; type: cell-based
[16] = molecular target: T1, Integrin alpha-V/beta-1; assay: Inhibition of human Integrin alphaVbeta1 expressed in CHO-B2 cell cocultured with TGF-beta expressing Mv1Lu cells assessed as inhibition of integrin alphaVbeta1 mediated TGF-beta transactivation by luciferase assay; type: cell-based
[17] = molecular target: T3, Integrin alpha-4/beta-1; assay: Inhibition of Integrin alpha4beta1 mediated cellular adhesion in human Jurkat cells incubated for 24 hrs in presence of Ca2+ and Mg2+ by real-time cell analysis; type: cell-based

T1 sequence (P05556 21-798 limits assumed): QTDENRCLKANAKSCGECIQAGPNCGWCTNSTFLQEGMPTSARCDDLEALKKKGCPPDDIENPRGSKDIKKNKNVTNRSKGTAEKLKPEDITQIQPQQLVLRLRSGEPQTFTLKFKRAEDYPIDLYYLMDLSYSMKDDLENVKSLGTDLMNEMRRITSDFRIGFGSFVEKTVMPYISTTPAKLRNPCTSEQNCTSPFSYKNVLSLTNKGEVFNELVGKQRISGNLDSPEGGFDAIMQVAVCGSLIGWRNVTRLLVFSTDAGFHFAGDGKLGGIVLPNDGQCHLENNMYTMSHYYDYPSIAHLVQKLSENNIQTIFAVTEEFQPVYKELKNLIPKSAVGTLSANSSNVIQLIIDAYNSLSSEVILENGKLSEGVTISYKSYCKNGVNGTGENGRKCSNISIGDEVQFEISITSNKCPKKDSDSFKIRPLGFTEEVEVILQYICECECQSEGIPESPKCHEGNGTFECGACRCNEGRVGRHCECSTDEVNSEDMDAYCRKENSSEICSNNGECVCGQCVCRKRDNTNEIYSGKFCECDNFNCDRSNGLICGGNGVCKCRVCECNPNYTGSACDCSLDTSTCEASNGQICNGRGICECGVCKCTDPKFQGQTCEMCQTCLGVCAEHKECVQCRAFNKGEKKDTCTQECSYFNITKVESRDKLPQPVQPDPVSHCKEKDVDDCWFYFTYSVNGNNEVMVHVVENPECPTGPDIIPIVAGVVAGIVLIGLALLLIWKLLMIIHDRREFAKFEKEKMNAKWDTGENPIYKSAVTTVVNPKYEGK
T1 sequence (P06756 31-889 limits assumed): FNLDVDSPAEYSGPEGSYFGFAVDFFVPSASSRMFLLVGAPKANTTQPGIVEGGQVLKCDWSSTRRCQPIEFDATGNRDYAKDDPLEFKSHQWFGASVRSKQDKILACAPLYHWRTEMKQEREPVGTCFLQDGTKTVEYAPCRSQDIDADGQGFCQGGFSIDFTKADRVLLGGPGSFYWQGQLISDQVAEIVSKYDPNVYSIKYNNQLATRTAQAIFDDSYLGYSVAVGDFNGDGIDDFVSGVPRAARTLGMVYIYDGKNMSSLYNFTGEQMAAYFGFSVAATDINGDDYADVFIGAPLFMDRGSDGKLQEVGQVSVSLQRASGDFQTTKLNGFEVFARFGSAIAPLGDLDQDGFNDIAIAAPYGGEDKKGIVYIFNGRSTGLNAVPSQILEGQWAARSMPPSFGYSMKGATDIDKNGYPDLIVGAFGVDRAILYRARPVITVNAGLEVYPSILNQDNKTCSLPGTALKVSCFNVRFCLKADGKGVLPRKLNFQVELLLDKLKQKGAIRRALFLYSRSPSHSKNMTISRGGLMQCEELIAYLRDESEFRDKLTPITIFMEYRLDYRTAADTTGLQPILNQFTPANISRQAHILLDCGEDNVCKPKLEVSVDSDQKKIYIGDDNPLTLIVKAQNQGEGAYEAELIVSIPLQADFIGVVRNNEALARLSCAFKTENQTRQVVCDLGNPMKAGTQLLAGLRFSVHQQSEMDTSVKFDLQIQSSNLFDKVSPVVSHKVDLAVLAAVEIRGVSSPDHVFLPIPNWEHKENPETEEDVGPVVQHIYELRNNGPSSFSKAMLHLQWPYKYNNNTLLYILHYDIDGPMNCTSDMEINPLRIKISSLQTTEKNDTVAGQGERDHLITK
T1 sequence (P06756 891-1048 limits assumed): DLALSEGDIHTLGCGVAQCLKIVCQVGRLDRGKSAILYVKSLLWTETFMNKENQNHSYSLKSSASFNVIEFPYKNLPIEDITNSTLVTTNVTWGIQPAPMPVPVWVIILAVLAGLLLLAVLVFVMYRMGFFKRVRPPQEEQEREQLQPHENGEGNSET
T4 sequence (P05556 21-798 limits assumed): as the sequence (P05556 21-798 limits assumed) above
T4 sequence (P08648 42-894 limits assumed): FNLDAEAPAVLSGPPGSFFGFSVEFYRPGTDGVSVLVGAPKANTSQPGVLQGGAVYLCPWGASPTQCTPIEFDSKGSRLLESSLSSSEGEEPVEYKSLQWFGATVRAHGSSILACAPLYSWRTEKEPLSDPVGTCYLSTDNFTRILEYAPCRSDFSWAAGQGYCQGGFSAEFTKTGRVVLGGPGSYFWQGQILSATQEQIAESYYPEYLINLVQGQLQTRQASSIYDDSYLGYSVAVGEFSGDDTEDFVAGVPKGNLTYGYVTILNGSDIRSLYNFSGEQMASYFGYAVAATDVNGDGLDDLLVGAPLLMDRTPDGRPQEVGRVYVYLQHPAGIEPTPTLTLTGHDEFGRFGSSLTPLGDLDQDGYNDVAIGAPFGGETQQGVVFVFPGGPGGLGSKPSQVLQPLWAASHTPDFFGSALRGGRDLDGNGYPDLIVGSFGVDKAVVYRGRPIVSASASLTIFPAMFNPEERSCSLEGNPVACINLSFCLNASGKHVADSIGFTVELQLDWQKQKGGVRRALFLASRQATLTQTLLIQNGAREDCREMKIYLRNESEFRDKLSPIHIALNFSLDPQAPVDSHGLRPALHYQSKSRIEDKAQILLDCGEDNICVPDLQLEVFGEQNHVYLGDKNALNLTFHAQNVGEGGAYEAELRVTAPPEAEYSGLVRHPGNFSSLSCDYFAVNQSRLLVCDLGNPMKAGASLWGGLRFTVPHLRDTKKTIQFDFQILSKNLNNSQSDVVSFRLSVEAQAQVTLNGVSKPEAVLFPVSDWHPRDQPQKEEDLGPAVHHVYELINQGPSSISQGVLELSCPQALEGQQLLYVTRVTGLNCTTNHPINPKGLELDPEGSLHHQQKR
T4 sequence (P08648 895-1049 limits assumed): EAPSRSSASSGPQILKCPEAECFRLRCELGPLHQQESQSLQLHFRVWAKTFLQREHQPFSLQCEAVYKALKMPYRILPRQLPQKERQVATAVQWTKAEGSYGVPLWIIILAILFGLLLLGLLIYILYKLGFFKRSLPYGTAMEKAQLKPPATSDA
T3 sequence (P05556 whole entry): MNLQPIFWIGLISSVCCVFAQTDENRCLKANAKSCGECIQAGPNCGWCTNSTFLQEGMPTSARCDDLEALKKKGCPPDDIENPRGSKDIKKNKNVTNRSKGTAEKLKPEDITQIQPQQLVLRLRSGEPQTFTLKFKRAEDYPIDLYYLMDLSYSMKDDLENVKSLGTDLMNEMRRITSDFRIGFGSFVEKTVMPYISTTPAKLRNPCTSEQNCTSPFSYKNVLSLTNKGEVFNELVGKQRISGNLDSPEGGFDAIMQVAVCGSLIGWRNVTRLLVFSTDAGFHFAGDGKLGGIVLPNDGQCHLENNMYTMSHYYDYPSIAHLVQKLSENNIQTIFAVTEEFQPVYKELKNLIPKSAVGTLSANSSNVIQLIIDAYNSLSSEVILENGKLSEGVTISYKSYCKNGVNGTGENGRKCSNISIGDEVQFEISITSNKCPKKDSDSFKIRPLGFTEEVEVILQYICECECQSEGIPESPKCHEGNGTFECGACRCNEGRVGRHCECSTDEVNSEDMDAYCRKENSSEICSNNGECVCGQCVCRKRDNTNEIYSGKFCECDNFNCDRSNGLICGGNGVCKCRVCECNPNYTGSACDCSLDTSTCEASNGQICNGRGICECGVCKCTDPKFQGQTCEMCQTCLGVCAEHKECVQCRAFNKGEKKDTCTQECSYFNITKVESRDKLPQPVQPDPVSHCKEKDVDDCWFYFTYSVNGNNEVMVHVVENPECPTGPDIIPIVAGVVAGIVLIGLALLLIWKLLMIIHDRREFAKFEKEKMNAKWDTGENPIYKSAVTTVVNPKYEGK
T3 sequence (P13612 whole entry): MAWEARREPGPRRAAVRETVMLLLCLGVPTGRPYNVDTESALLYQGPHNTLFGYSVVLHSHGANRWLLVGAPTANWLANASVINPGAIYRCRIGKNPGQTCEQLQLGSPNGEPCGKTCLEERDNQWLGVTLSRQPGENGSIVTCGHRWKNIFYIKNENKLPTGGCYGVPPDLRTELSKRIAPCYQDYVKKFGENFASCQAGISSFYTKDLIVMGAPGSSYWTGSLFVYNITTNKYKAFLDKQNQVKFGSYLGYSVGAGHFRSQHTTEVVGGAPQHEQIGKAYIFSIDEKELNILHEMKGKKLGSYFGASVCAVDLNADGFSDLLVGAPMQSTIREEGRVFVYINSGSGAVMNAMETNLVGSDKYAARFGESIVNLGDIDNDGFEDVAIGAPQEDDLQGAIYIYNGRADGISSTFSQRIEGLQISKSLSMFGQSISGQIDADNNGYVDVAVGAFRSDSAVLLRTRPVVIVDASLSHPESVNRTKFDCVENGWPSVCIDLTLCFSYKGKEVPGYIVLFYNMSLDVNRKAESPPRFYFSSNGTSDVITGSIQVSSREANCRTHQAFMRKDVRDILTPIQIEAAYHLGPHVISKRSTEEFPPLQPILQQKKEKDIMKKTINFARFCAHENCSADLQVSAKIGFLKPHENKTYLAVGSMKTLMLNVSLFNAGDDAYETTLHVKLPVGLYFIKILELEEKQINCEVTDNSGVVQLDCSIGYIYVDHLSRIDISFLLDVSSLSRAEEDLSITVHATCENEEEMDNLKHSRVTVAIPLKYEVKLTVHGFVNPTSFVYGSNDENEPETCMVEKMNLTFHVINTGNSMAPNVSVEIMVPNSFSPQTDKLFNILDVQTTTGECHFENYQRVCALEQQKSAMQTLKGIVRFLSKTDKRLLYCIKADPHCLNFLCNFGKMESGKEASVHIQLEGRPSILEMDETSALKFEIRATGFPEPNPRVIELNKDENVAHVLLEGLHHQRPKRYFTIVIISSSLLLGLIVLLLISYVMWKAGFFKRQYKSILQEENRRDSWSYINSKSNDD

Structure (SMILES)	pIC50 [1]	pIC50 [2]	pIC50 [3]	pIC50 [4]	pIC50 [5]	pIC50 [6]	pIC50 [7]	other results
COc1ccc(Cl)c(C(=O)N[C@@H](CNC(=O)Cn2c(=O)[nH]c3ncccc32)C(=O)O)c1F	9.20	< 5.00	5.80	6.60	< 5.00	5.80	5.50	–
O=C(Cn1c(=O)[nH]c2ccccc21)NC[C@H](NC(=O)c1c(Cl)cccc1Cl)C(=O)O	7.70	< 5.00	5.70	5.90	< 5.00	< 5.00	< 5.00	–
Cc1nc2ccccc2n1CC(=O)NC[C@H](NC(=O)c1ccccc1Cl)C(=O)O	< 5.00	–	–	–	–	–	–	–
Cc1cc(C#N)cc(C)c1C(=O)N[C@@H](CNC(=O)Cn1c(=O)[nH]c2ncccc21)C(=O)O	8.00	< 5.00	5.30	5.60	< 5.00	< 5.00	< 5.00	–
O=C(NC(CNc1ccc(N2CCNC2=O)cc1)C(=O)O)c1c(Cl)cccc1Cl (racemic)	6.70	5.40	6.70	6.20	5.90	5.10	< 5.00	–
O=C(CN1Cc2ccccc2NC1=O)NC[C@H](NC(=O)c1ccccc1Cl)C(=O)O	6.40	–	–	–	–	–	–	–
O=C(Cn1c(=O)[nH]c2ncccc21)NC[C@H](NC(=O)c1c(Cl)cccc1Cl)C(=O)O	8.40	< 5.00	5.50	6.40	< 5.00	5.20	< 5.00	–
Cc1ccc(Cl)c(C(=O)N[C@@H](CNC(=O)Cn2c(=O)[nH]c3cc(F)c(F)cc32)C(=O)O)c1F	9.00	–	–	–	–	–	–	Papp A→B at 1 h [8]: 1.2 ×10⁻⁶ cm/s; Papp B→A at 1 h [9]: 0.2 ×10⁻⁶ cm/s
N=C(N)NCCCCC(=O)Nc1ccc(C[C@H](NC(=O)[C@@H]2CCCN2S(=O)(=O)c2ccccc2)C(=O)O)cc1	–	–	–	–	–	–	–	pIC50 [10]: 6.00; pIC50 [11]: 5.76; pIC50 [12]: 6.50; pIC50 [13]: < 5.00; pIC50 [14]: 7.90; pIC50 [15]: 5.23; pIC50 [16]: 8.00; pIC50 [17]: 7.46
Cc1cc2[nH]c(=O)n(CC(=O)NC[C@H](NC(=O)c3c(Cl)ccc(C)c3F)C(=O)O)c2cc1C	8.80	–	–	–	–	–	–	Papp A→B at 1 h [8]: 0.8 ×10⁻⁶ cm/s; Papp B→A at 1 h [9]: 0.6 ×10⁻⁶ cm/s
Cc1ccc(Cl)c(C(=O)N[C@@H](CNC(=O)Cn2c(=O)[nH]c3ncccc32)C(=O)O)c1F	9.20	5.30	5.80	7.20	5.40	5.70	5.40	–
COc1ccc(Cl)c(C(=O)N[C@@H](CNC(=O)Cn2c(=O)[nH]c3ccncc32)C(=O)O)c1F	9.20	–	–	–	–	–	–	Papp A→B at 1 h [8]: 1.2 ×10⁻⁶ cm/s; Papp B→A at 1 h [9]: 1.2 ×10⁻⁶ cm/s
O=C(NC(Cc1ccccc1)C(=O)O)c1ccc(Cl)cc1Cl (stereo not given)	5.30	< 4.50	–	< 4.50	< 4.50	< 4.50	< 4.50	–
O=C(CN1C(=O)Cc2ccccc21)NC[C@H](NC(=O)c1ccccc1Cl)C(=O)O	< 5.00	–	–	–	–	–	–	–
O=C(NC(CNc1ccccc1)C(=O)O)c1c(Cl)cccc1Cl (stereo not given)	6.70	< 5.00	–	< 5.00	< 5.00	< 5.00	< 5.00	–
O=C(Cn1c(=O)[nH]c2ncccc21)NC[C@H](NC(=O)c1ccccc1Cl)C(=O)O	7.90	< 5.00	5.50	6.20	< 5.00	< 5.00	6.30	–
Cc1cnc2[nH]c(=O)n(CC(=O)NC[C@H](NC(=O)c3c(Cl)ccc(C)c3F)C(=O)O)c2c1	7.10	–	–	–	–	–	–	Papp A→B at 1 h [8]: 0.4 ×10⁻⁶ cm/s; Papp B→A at 1 h [9]: 0.3 ×10⁻⁶ cm/s
O=C(CN1C(=O)NCc2ccccc21)NC[C@H](NC(=O)c1ccccc1Cl)C(=O)O	6.50	–	–	–	–	–	–	–
O=C(Cn1c(=O)[nH]c2ncccc21)NC[C@H](NC(=O)c1c(F)cc(-c2ccccc2)cc1Cl)C(=O)O	7.50	< 5.00	< 5.00	6.20	< 5.00	5.20	< 5.00	–
COc1cc(F)c(C(=O)N[C@@H](CNC(=O)Cn2c(=O)[nH]c3ncccc32)C(=O)O)c(Cl)c1	8.90	< 5.00	5.30	6.80	< 5.00	5.40	5.20	–
Cc1ccc(Cl)c(C(=O)N[C@@H](CNC(=O)Cn2c(=O)[nH]c3ncncc32)C(=O)O)c1F	9.20	–	–	–	–	–	–	Papp A→B at 1 h [8]: 0.9 ×10⁻⁶ cm/s; Papp B→A at 1 h [9]: 0.7 ×10⁻⁶ cm/s
O=C(Cn1cnc2ccccc21)NC[C@H](NC(=O)c1ccccc1Cl)C(=O)O	< 5.00	–	–	–	–	–	–	–
O=C(CCCCc1ccc2c(n1)NCCC2)NCC(NC(=O)c1c(Cl)cccc1Cl)C(=O)O (racemic)	9.70	9.00	5.50	–	–	> 9.80	> 9.80	–
O=C(Cn1c(=O)[nH]c2ncccc21)NC[C@H](NC(=O)c1c(F)cccc1Cl)C(=O)O	8.30	< 5.00	5.60	6.40	< 5.00	5.10	< 5.00	–
